Test results as given in PubChem BioAssay AID256 (DTP/NCI, 2004).
Where “and” joins values, the source holds several entries; their conditions need not be identical. Equal entries are not always repeated. Inconclusive results and toxic doses are left out. Non-standard residues stand in square brackets, D forms with d. Residues, ends and D or L forms follow the SMILES beside them. ξ: configuration not given here. *: point of attachment. ξAsp(βξ-Me) = CC(C(=O)O)C(N)C(=O)O; X5 = CC(N*)C1NC(=O)C2CCCCN2C1=O; ξAbu(3ξ-NH2) = CC(N)C(N)C(=O)O; X4 = CCC(C)CCC/C=C/CC(=O)*

Tested on: CD2F1 mice, L1210 leukemia ip, survival T/C
Assay: NCI In Vivo Anticancer Drug Screen. Data for tumor model L1210 Leukemia (intraperitoneal) in CD2F1 (CDF1) mice
Settings: higher = longer survival
In short: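 Activity against a transplanted murine tumor was judged by comparing the compound group with a vehicle group. The outcome in the treated animals was divided by that in the controls.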

[1] = endpoint: mean survival time, dose: 100.0 mg/kg/injection, schedule: Q04DX002 (ip), vehicle: saline
[2] = endpoint: mean survival time, dose: 200.0 mg/kg/injection, schedule: Q04DX002 (ip), vehicle: saline
[3] = endpoint: mean survival time, dose: 100.0 mg/kg/injection, schedule: Q01DX009 (ip), vehicle: other
[4] = endpoint: mean survival time, dose: 200.0 mg/kg/injection, schedule: Q01DX009 (ip), vehicle: other
[5] = endpoint: mean survival time, dose: 100.0 mg/kg/injection, schedule: Q04DX003 (ip), vehicle: saline with Tween-80
[6] = endpoint: mean survival time, dose: 200.0 mg/kg/injection, schedule: Q04DX003 (ip), vehicle: saline with Tween-80
[7] = endpoint: mean survival time, dose: 100.0 mg/kg/injection, schedule: Q04DX003 (ip), vehicle: saline
[8] = endpoint: mean survival time, dose: 200.0 mg/kg/injection, schedule: Q04DX003 (ip), vehicle: saline
[9] = endpoint: mean survival time, dose: 400.0 mg/kg/injection, schedule: Q04DX003 (ip), vehicle: saline

## Cc1cc(N(C)C)c(C(C)C)cc1O (tested in a mixture with another compound)
endpoint: mean survival time, dose: 32.0 micrograms/kg/injection, schedule: Q04DX003 (ip), vehicle: saline
  T/C: 104 % of control
endpoint: mean survival time, dose: 63.0 micrograms/kg/injection, schedule: Q01DX001 (ip), vehicle: saline
  T/C: 112 % of control
endpoint: mean survival time, dose: 63.0 micrograms/kg/injection, schedule: Q04DX003 (ip), vehicle: saline
  T/C: 98 % of control
endpoint: mean survival time, dose: 125.0 micrograms/kg/injection, schedule: Q01DX001 (ip), vehicle: saline
  T/C: 112 % of control
endpoint: mean survival time, dose: 125.0 micrograms/kg/injection, schedule: Q04DX003 (ip), vehicle: saline
  T/C: 101 % of control

## CCOC(=O)CCC(NC(=O)c1ccc(NCC2CCc3nc(N)[nH]c(=O)c3N2)cc1)C(=O)OCC (stereo unspecified)
endpoint: median survival time, dose: 10.0 mg/kg/injection, schedule: Q01DX005 (ip), vehicle: distilled water + Tween-80
  T/C: 97 % of control
endpoint: median survival time, dose: 20.0 mg/kg/injection, schedule: Q01DX005 (ip), vehicle: distilled water + Tween-80
  T/C: 102 % of control
endpoint: median survival time, dose: 40.0 mg/kg/injection, schedule: Q01DX005 (ip), vehicle: distilled water + Tween-80
  T/C: 100 % of control
endpoint: median survival time, dose: 80.0 mg/kg/injection, schedule: Q01DX005 (ip), vehicle: distilled water + Tween-80
  T/C: 96 % of control
endpoint: median survival time, dose: 160.0 mg/kg/injection, schedule: Q01DX005 (ip), vehicle: distilled water + Tween-80
  T/C: 100 % of control

## CC1OC(n2ncc(=O)[nH]c2=O)C(O)C(O)C1O (stereo unspecified)
endpoint: mean survival time, dose: 12.5 mg/kg/injection, schedule: Q01DX005 (ip), vehicle: distilled water + Tween-80
  T/C: 105 % of control
endpoint: mean survival time, dose: 25.0 mg/kg/injection, schedule: Q01DX005 (ip), vehicle: distilled water + Tween-80
  T/C: 100 % of control
endpoint: mean survival time, dose: 50.0 mg/kg/injection, schedule: Q01DX005 (ip), vehicle: distilled water + Tween-80
  T/C: 103 % of control
endpoint: mean survival time, dose: 100.0 mg/kg/injection, schedule: Q01DX005 (ip), vehicle: distilled water + Tween-80
  T/C: 103 % of control
endpoint: mean survival time, dose: 200.0 mg/kg/injection, schedule: Q01DX005 (ip), vehicle: distilled water + Tween-80
  T/C: 107 % of control

## O=c1[nH]cnc2c1ncn2C1CC(CO)C(O)OC1O (stereo unspecified)
[1]
  T/C: 164 % of control
[2]
  T/C: 188 % of control

## CC(=O)OCC1OC(OC(C)=O)C(NC(=O)NS(=O)(=O)c2ccc(C)cc2)C(OC(C)=O)C1OC(C)=O (stereo unspecified)
endpoint: mean survival time, dose: 12.5 mg/kg/injection, schedule: Q01DX009 (ip), vehicle: other
  T/C: 105 % of control
endpoint: mean survival time, dose: 25.0 mg/kg/injection, schedule: Q01DX009 (ip), vehicle: other
  T/C: 98 % of control
endpoint: mean survival time, dose: 50.0 mg/kg/injection, schedule: Q01DX009 (ip), vehicle: other
  T/C: 93 % of control
[3]
  T/C: 94 % of control
[4]
  T/C: 94 % of control

## O/N=C/c1cc[n+](CCC[n+]2ccc(/C=N/O)cc2)cc1
endpoint: mean survival time, dose: 5.0 mg/kg/injection, schedule: Q01DX009 (ip), vehicle: saline sonified
  T/C: 98 % of control
endpoint: mean survival time, dose: 5.0 mg/kg/injection, schedule: Q04DX003 (ip), vehicle: saline
  T/C: 103 % of control
endpoint: mean survival time, dose: 10.0 mg/kg/injection, schedule: Q01DX009 (ip), vehicle: saline sonified
  T/C: 98 % of control
endpoint: mean survival time, dose: 10.0 mg/kg/injection, schedule: Q04DX003 (ip), vehicle: saline
  T/C: 105 % of control
endpoint: mean survival time, dose: 20.0 mg/kg/injection, schedule: Q01DX009 (ip), vehicle: saline sonified
  T/C: 95 % of control
endpoint: mean survival time, dose: 20.0 mg/kg/injection, schedule: Q04DX003 (ip), vehicle: saline
  T/C: 101 % of control

## CNCCNc1ccc(NCCNC)c2c1C(=O)c1ccccc1C2=O
endpoint: mean survival time, dose: 4.0 mg/kg/injection, schedule: Q01DX009 (ip), vehicle: acid diluted with saline
  T/C: 150 % of control and 157 % of control
endpoint: mean survival time, dose: 8.0 mg/kg/injection, schedule: Q01DX009 (ip), vehicle: acid diluted with saline
  T/C: 187 % of control and 195 % of control
endpoint: mean survival time, dose: 16.0 mg/kg/injection, schedule: Q01DX009 (ip), vehicle: acid diluted with saline
  T/C: 177 % of control

## N=C(N)N
endpoint: mean survival time, dose: 50.0 mg/kg/injection, schedule: Q01DX009 (ip), vehicle: saline with Tween-80
  T/C: 96 % of control
endpoint: mean survival time, dose: 100.0 mg/kg/injection, schedule: Q01DX009 (ip), vehicle: saline with Tween-80
  T/C: 98 % of control
[5]
  T/C: 96 % of control
endpoint: mean survival time, dose: 200.0 mg/kg/injection, schedule: Q01DX009 (ip), vehicle: saline with Tween-80
  T/C: 96 % of control
[6]
  T/C: 94 % of control

## O=c1ccc2cc(Cl)cc([N+](=O)[O-])c2o1
endpoint: mean survival time, dose: 100.0 mg/kg/injection, schedule: Q01DX001 (ip), vehicle: Klucel (hydroxypropylcellulose) (HPC)
  T/C: 102 % of control
endpoint: mean survival time, dose: 200.0 mg/kg/injection, schedule: Q01DX001 (ip), vehicle: Klucel (hydroxypropylcellulose) (HPC)
  T/C: 99 % of control
endpoint: mean survival time, dose: 400.0 mg/kg/injection, schedule: Q01DX001 (ip), vehicle: Klucel (hydroxypropylcellulose) (HPC)
  T/C: 99 % of control

## CC1CCOC(C)(C)O1 (stereo unspecified)
[1]
  T/C: 100 % of control
[2]
  T/C: 86 % of control
endpoint: mean survival time, dose: 400.0 mg/kg/injection, schedule: Q04DX002 (ip), vehicle: saline
  T/C: 104 % of control

## O=[N+]([O-])c1cccnc1SSc1ncccc1[N+](=O)[O-]
endpoint: mean survival time, dose: 100.0 mg/kg/injection, schedule: Q01DX001 (ip), vehicle: saline
  T/C: 90 % of control
[7]
  T/C: 92 % of control
endpoint: mean survival time, dose: 200.0 mg/kg/injection, schedule: Q01DX001 (ip), vehicle: saline
  T/C: 90 % of control
[8]
  T/C: 102 % of control
endpoint: mean survival time, dose: 400.0 mg/kg/injection, schedule: Q01DX001 (ip), vehicle: saline
  T/C: 90 % of control
[9]
  T/C: 92 % of control

## COC(=O)C(C)C1(O)CCCCC1 (stereo unspecified)
[5]
  T/C: 97 % of control
[6]
  T/C: 95 % of control
endpoint: mean survival time, dose: 400.0 mg/kg/injection, schedule: Q04DX003 (ip), vehicle: saline with Tween-80
  T/C: 98 % of control

## c1ccc(N=C2CCCCC2)cc1
endpoint: mean survival time, dose: 100.0 mg/kg/injection, schedule: Q01DX001 (ip), vehicle: other
  T/C: 115 % of control
endpoint: mean survival time, dose: 100.0 mg/kg/injection, schedule: Q01DX001 (ip), vehicle: saline + Tween-80 + alcohol
  T/C: 98 % of control
endpoint: mean survival time, dose: 200.0 mg/kg/injection, schedule: Q01DX001 (ip), vehicle: other
  T/C: 93 % of control
endpoint: mean survival time, dose: 200.0 mg/kg/injection, schedule: Q01DX001 (ip), vehicle: saline + Tween-80 + alcohol
  T/C: 102 % of control
endpoint: mean survival time, dose: 400.0 mg/kg/injection, schedule: Q01DX001 (ip), vehicle: other
  T/C: 120 % of control
endpoint: mean survival time, dose: 400.0 mg/kg/injection, schedule: Q01DX001 (ip), vehicle: saline + Tween-80 + alcohol
  T/C: 103 % of control
endpoint: mean survival time, dose: 600.0 mg/kg/injection, schedule: Q01DX001 (ip), vehicle: saline + Tween-80 + alcohol
  T/C: 105 % of control

## CCC(C)CCC/C=C/CC(=O)NC(CC(=O)O)C(=O)NC(C(=O)NC(CC(=O)O)C(=O)NCC(=O)NC(CC(=O)O)C(=O)NCC(=O)NC(C(=O)NC(C(=O)N1CCCC1C(=O)NC(C)C1NC(=O)C2CCCCN2C1=O)C(C)C)C(C)N)C(C)C(=O)O (stereo not drawn) (X4-D[ξAsp(βξ-Me)]DGDG[ξAbu(3ξ-NH2)]VP-X5; configuration not given here)
endpoint: mean survival time, dose: 100.0 mg/kg/injection, schedule: Q01DX009 (ip), vehicle: saline + alcohol
  T/C: 93 % of control
endpoint: mean survival time, dose: 200.0 mg/kg/injection, schedule: Q01DX009 (ip), vehicle: saline + alcohol
  T/C: 87 % of control

## O=C(O)[C@H](Cc1ccccc1)N1C(=O)c2ccccc2C1=O
endpoint: median survival time, dose: 75.0 mg/kg/injection, schedule: Q01DX005 (ip), vehicle: DMSO
  T/C: 96 % of control
endpoint: median survival time, dose: 150.0 mg/kg/injection, schedule: Q01DX005 (ip), vehicle: DMSO
  T/C: 93 % of control
endpoint: median survival time, dose: 300.0 mg/kg/injection, schedule: Q01DX005 (ip), vehicle: DMSO
  T/C: 96 % of control
endpoint: median survival time, dose: 600.0 mg/kg/injection, schedule: Q01DX005 (ip), vehicle: DMSO
  T/C: 98 % of control

## CCCCCCCCCC(O)CCCCCCCCC
[3]
  T/C: 102 % of control
endpoint: mean survival time, dose: 100.0 mg/kg/injection, schedule: Q04DX003 (ip), vehicle: other
  T/C: 103 % of control
[4]
  T/C: 91 % of control
endpoint: mean survival time, dose: 200.0 mg/kg/injection, schedule: Q04DX003 (ip), vehicle: other
  T/C: 94 % of control
endpoint: mean survival time, dose: 400.0 mg/kg/injection, schedule: Q01DX009 (ip), vehicle: other
  T/C: 91 % of control
endpoint: mean survival time, dose: 400.0 mg/kg/injection, schedule: Q04DX003 (ip), vehicle: other
  T/C: 94 % of control

## O=C(NC(CCO)C(=O)O)OCc1ccccc1 (stereo unspecified)
endpoint: mean survival time, dose: 75.0 mg/kg/injection, schedule: Q04DX003 (ip), vehicle: saline
  T/C: 95 % of control
endpoint: mean survival time, dose: 150.0 mg/kg/injection, schedule: Q04DX003 (ip), vehicle: saline
  T/C: 98 % of control
endpoint: mean survival time, dose: 300.0 mg/kg/injection, schedule: Q04DX003 (ip), vehicle: saline
  T/C: 101 % of control

## CCOC1=C(C)C(=O)C1C (stereo unspecified)
[7]
  T/C: 100 % of control
[8]
  T/C: 94 % of control
[9]
  T/C: 100 % of control
